The text below walks through data of patent publication US11696913B2, “Prolonged ectoparasite-controlling agent for animal” (MITSUI CHEMICALS AGRO, INC., priority 2017, dated 2023).

Each structure is given as a SMILES string.

For test [1], the system named is Ctenocephalides felis. Briefly: Ctenocephalides felis in-vitro feeding test with fleas (CTECFE oral). To be noted: 48 hours, read-out: insecticidal feeding activity; for pest or weed control at 0.8 ppm: dose 0.8 ppm in citrated cattle blood; for pest or weed control at 4 ppm: dose 4 ppm in citrated cattle blood; for pest or weed control at 0.16 ppm: dose 0.16 ppm in citrated cattle blood. A digest of the protocol: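 Scored as percent fleas killed (0–100%) 48 hours after feeding began. Compound, dissolved in DMSO and diluted into citrated cattle blood, was offered via a parafilm membrane to roughly 20 adult male and female C. felis at about 37° C.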

The subject of test [2] is Rhipicephalus (Boophilus) microplus. The test can be described thus: In vitro injection test with Rhipicephalus (Boophilus) microplus (BOOPMI Inj). To be noted: 168 h, laid fertile eggs after 7 days, read-out: acaricidal activity; for pest or weed control at 32 ng: dose 0.032 μg/animal injected; for pest or weed control at 0.00016 mg: dose 0.16 μg/animal injected; for pest or weed control at 0.0008 mg: dose 0.8 μg/animal injected. Summed up: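 Five engorged adult females each get a 1 μl abdominal injection of compound dissolved and diluted in DMSO. Kept 7 days at 28° C./85% rel. hum.; percent activity rates egg laying and egg fertility (0% all fertile, 100% none laid or infertile).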

For test [3], the system named is Amblyomma americanum. Briefly: In vitro contact test with hard ticks (Amblyomma americanum nymphs). To be noted: read-out: acaricidal activity; for pest or weed control at 0.2 µg/cm2, 0.2 µg/cm2: dose 0.2 μg/cm^2, 48 h; for pest or weed control at 1 µg/cm2, 1 µg/cm2: dose 1 μg/cm^2, 48 h. A digest of the protocol:
(§1)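 Acaricidal activity = % ticks dead or moribund after 48 h contact with acetone-deposited compound on vial walls (e.g., 900 ppm solution → 5 μg/cm^2). Ambient conditions for R. sanguineus, 21° C./85% rel. hum. for other species; heat challenge at 45-50° C. separated climbers from moribund ticks.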

The subject of test [4] is Ixodes ricinus. Briefly: In vitro contact test with adult hard ticks (Ixodes ricinus). To be noted: read-out: acaricidal activity; for pest or weed control at 0.2 µg/cm2, 0.2 µg/cm2: dose 0.2 μg/cm^2, 48 h; for pest or weed control at 1 µg/cm2, 1 µg/cm2: dose 1 μg/cm^2, 48 h; for pest or weed control at 5 µg/cm2, 5 µg/cm2: dose 5 μg/cm^2, 48 h. Summed up:
as §1

For test [5], the system named is Laodelphax striatellus. Briefly: Insecticidal testing against small brown planthopper. Format: in vivo. To be noted: 144 h, concentration 100 ppm, sprayed rice seedlings, after 6 days, read-out: pesticidal rate. A digest of the protocol: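 Acetone solution of compound at a set concentration sprayed onto rice seedlings, air-dried, then exposed to 10 planthoppers (one group). Held at 25° C; survival rate recorded after 6 days.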

For test [6], the system named is Spodoptera litura. The test can be described thus: Insecticidal testing against common cutworm. To be noted: foliar, 144 h, concentration 100 ppm, cabbage leaf dip, second-stage larvae, after 6 days, read-out: pesticidal rate. The test is classed as in vivo. The text has this: Insecticidal Testing Against Common Cutworm (Spodoptera litura)
In test [7] the test system is Rhipicephalus sanguineus. Briefly: In vitro contact test with adult hard ticks (Rhipicephalus sanguineus). To be noted: read-out: acaricidal activity; for pest or weed control at 0.2 µg/cm2, 0.2 µg/cm2: dose 0.2 μg/cm^2, 48 h; for pest or weed control at 1 µg/cm2, 1 µg/cm2: dose 1 μg/cm^2, 48 h. Summed up:
as §1

Test [8] relates to Dermacentor variabilis. Briefly: In vitro contact test with adult hard ticks (Dermacentor variabilis). To be noted: read-out: acaricidal activity; for pest or weed control at 0.2 µg/cm2, 0.2 µg/cm2: dose 0.2 μg/cm^2, 48 h; for pest or weed control at 1 µg/cm2, 1 µg/cm2: dose 1 μg/cm^2, 48 h. A digest of the protocol: as §1
The subject of test [9] is Ctenocephalides felis. The test can be described thus: In vitro contact test with fleas. To be noted: read-out: insecticidal activity; for pest or weed control at 0.2 µg/cm2, 0.2 µg/cm2: dose 0.2 μg/cm^2, dead or moribund fleas after 48 h; for pest or weed control at 1 µg/cm2, 1 µg/cm2: dose 1 μg/cm^2, dead or moribund fleas after 48 h. A digest of the protocol: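 Activity is the percentage of fleas dead or moribund at 48 h, judged by immobility or uncoordinated movement after tapping. Tubes were coated by evaporating acetone solutions (900 ppm gives 5 μg/cm^2), then held 5-10 adult fleas of both sexes at room temperature and ambient humidity.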

In test [10] the test system is Plutella xylostella. The test can be described thus: Insecticidal testing against diamondback moth. To be noted: foliar, 144 h, concentration 100 ppm, cabbage leaf dip, third-stage larvae, after 6 days, read-out: pesticidal rate. Format: in vivo. From the text: Insecticidal Testing Against Diamondback Moth (Plutella xylostella)

For `O=C(Nc1cccc(C(=O)Nc2c(Br)cc(C(F)(C(F)(F)F)C(F)(F)F)cc2OC(F)(F)F)c1F)c1ccc(F)cc1` [Compound 71], in test [1], the pest or weed control at 0.8 ppm came out at 95%. Further, in test [1], the pest or weed control at 4 ppm stood at 95%. For the same molecule, the pest or weed control at 32 ng in test [2] worked out at 100%. Further, in [2], the pest or weed control at 0.00016 mg was 100%. In addition, the pest or weed control at 0.0008 mg in test [2] amounted to 100%. Also, the pest or weed control at 0.2 µg/cm2, 0.2 µg/cm2 in test [3] is 90%; in test [4] it was 90%; in [7], 90%; in test [8], 90%; in [9] it was 95%. Moreover, the pest or weed control at 1 µg/cm2, 1 µg/cm2 stood at 90% in test [3]; 90% in test [4]; 90% in test [7]; 90% in test [8]; 95% in [9]. In addition, the pest or weed control at 5 µg/cm2, 5 µg/cm2 in [4] was 90%. The pest or weed control at 100 ppm in test [5], in [6] and in [10] was no less than 70% each time. For the same molecule, the pest or weed control at 0.04 µg/cm2, 0.04 µg/cm2 in [7] (dose 0.04 μg/cm^2, 48 h) was found to be 90%.
`O=C(Nc1cccc(C(=O)Nc2c(I)cc(C(F)(C(F)(F)F)C(F)(F)F)cc2S(=O)(=O)C(F)(F)F)c1F)c1ccc(F)cc1` [Compound 64]: in test [1], the pest or weed control at 0.16 ppm was determined as 95%, the pest or weed control at 0.8 ppm was determined as 95% and the pest or weed control at 4 ppm came to 95%. For the same molecule, in test [2], the pest or weed control at 32 ng is 100%, the pest or weed control at 0.00016 mg came to 100% and the pest or weed control at 0.0008 mg is 100%. In addition, in test [3], the pest or weed control at 0.2 µg/cm2, 0.2 µg/cm2 is 90% and the pest or weed control at 1 µg/cm2, 1 µg/cm2 is 90%. Also, in [4], the pest or weed control at 1 µg/cm2, 1 µg/cm2 was 90% and the pest or weed control at 5 µg/cm2, 5 µg/cm2 came out at 90%. The pest or weed control at 100 ppm in [5] is no less than 70%. In addition, in [6], the pest or weed control at 100 ppm is no less than 70%. Moreover, in [7], the pest or weed control at 0.2 µg/cm2, 0.2 µg/cm2 turned out to be 90% and the pest or weed control at 1 µg/cm2, 1 µg/cm2 was 90%. In test [8], the pest or weed control at 0.2 µg/cm2, 0.2 µg/cm2 was 90% and the pest or weed control at 1 µg/cm2, 1 µg/cm2 stood at 90%. Besides, in test [9], the pest or weed control at 0.2 µg/cm2, 0.2 µg/cm2 turned out to be 95% and the pest or weed control at 1 µg/cm2, 1 µg/cm2 was determined as 95%. The pest or weed control at 100 ppm in test [10] is no less than 70%.
Regarding `O=C(Nc1cccc(C(=O)Nc2c(I)cc(C(F)(C(F)(F)F)C(F)(F)F)cc2C(F)(F)F)c1F)c1ccc(C(F)F)nc1` [Compound 85], the pest or weed control at 0.0064 ppm in test [1] (dose 0.0064 ppm in citrated cattle blood) is 95%. In test [1] (dose 0.032 ppm in citrated cattle blood), the pest or weed control at 0.032 ppm came to 95%. Moreover, the pest or weed control at 0.16 ppm in [1] is 95%. Further, the pest or weed control at 0.8 ppm in test [1] is 95%. For the same molecule, the pest or weed control at 4 ppm in [1] was 95%. Besides, the pest or weed control at 32 ng in [2] was found to be 100%. The pest or weed control at 0.00016 mg in [2] was determined as 100%. For the same molecule, the pest or weed control at 0.0008 mg in [2] was found to be 100%. For the same molecule, the pest or weed control at 0.2 µg/cm2, 0.2 µg/cm2 is 90% in test [3]; 90% in test [4]; 90% in [7]; 90% in [8]; 95% in test [9]. Also, the pest or weed control at 1 µg/cm2, 1 µg/cm2 in test [3] was 90%; in [4], 90%; in test [7], 90%; in [8], 90%; in test [9], 95%. Besides, the pest or weed control at 5 µg/cm2, 5 µg/cm2 in [4] turned out to be 90%. The pest or weed control at 100 ppm in test [5], in test [6] and in [10] was no less than 70% in each case. Besides, the pest or weed control at 0.04 µg/cm2, 0.04 µg/cm2 was determined as 90% in test [8] (dose 0.04 μg/cm^2, 48 h) and 95% in [9] (dose 0.04 μg/cm^2, dead or moribund fleas after 48 h).
